We go through three molecules from patent publication US20110045083A1, “USE LARCH WOOD FOR TREATING INFLAMMATION” (priority 2007, published 2011).

Values joined by “and” are separate entries in the source; they are usually repeats but may differ in a detail not shown here. Identical values can stand only once. Like-named read-outs stand apart in the source and are kept apart here.

One assay deals with 5-lipoxygenase (5-LOX). The conditions noted are these: read-out: 5-LOX inhibitory activity IC50, cited from earlier work.
For assay [1], the system named is 5-LOX mediated LT biosynthesis. Briefly: LT biosynthesis inhibition assay in activated neutrophile granulocytes, LTB4 EIA. In kind it is cell-based, human. As for the experimental part:
1.) LT biosynthesis inhibition assay
The assay was performed as described in [Michael Adams, Olaf Kunert, Ernst Haslinger, Rudolf Bauer: Inhibition of Leukotriene Biosynthesis by Quinolone Alkaloids from the Fruits of Evodia Rutaecarpa; Planta med. 2004 (70): 904-908] with some modifications.
Principle: Activated neutrophile granulocytes with 5-LOX activity are incubated with a defined concentration of test sample and arachidonic acid. After stopping the enzymatic reaction by addition of formic acid and centrifugation to remove cellular fragments, the produced LTB4 is quantified in the supernatant by means of an LTB4 EIA kit.
Isolation of human neutrophile granulocytes: 30 ml of venous human blood from healthy voluntary donors are collected with a Vacutainer™ (BD, Plymouth, UK) system containing a 0.219 M pre-analytical citric acid solution. The blood is immediately transferred to a falcon tube containing 20 ml of sedimentation solution (1% NaCl, 6% dextran T-500) and left to separate for 60 min at 4° C. While most of the dense erythrocytes sink into the dextran layer, the lighter blood fractions remain in the upper layer which is then removed and centrifuged at 1600 rpm (4° C., 10 min) to concentrate the leukocytes. The plasma supernatant is discarded, the pellet is resuspended in 10 ml of a wash buffer (10% CaCl2.2H2O p.a.; 0.1% anhydrous d-glucose; 0.2% MgCl2.6H2O; 0.04% KCl; 1.75% TRIS p.a.; with the pH adjusted to 7.6 with 1N HCl). After centrifugation at 1400 rpm (4° C., 10 min) and removal of the supernatant the resulting pellet is resuspended in 10 ml of a hypotonic lysis buffer (0.17% NH4Cl; 0.2% TRIS; pH 7.2) and gently shaken for 5 min at room temperature to destroy remaining erythrocytes. The suspension is submitted to another centrifugation at 1400 rpm (4° C., 5 min). The pellet is resuspended in 10 ml of wash buffer and then centrifuged at 1400 rpm (4° C., 15 min). The resulting pellet which now mainly contains neutrophile granulocytes is resuspended in 2 ml of TRIS buffer (1.75% TRIS p.a., 0.9% NaCl, pH 7.4), tested for vitality, quantified and then diluted to a cell concentration of 4500 cells/ml with TRIS buffer.
Cell vitality test: 50 μl of cell suspension and 10 μl of trypan blue solution (0.4%) (Sigma Chemical Co. Steinheim, Germany) are mixed on a glass object carrier and examined with a light microscope at 1000 fold magnification. Dead cells appear larger and darker due to absorption of trypan blue. The vitality of the cells must be >95%.
Determination of cell concentration: 10 μl of granulocyte cell suspension are dyed using 990 μl aqueous TURKS solution (Merck) and quantified in a “Neubauer” chamber (Assistent, Germany).
Sample preparation: samples are dissolved in an appropriate amount of ethanol p.a. to be added to the test mixture resulting in screening concentrations of 50 μM for pure compounds and 20 μg/ml for crude. The commercially available 5-LOX inhibitor zileuton (Sequoia Research Products Ltd., UK) is used as a positive control at a concentration of 10 μM representing its IC50 in this test system.
Incubation procedure: The incubation mixture in a 96-well flat bottom microtitre plate (Bibby Sterilin, Staffordshire, UK) consists of 265 μl leukocyte suspension, with 75.5 μM CaCl2, 0.152 μM […] (ETYA) as an inhibitor of the 12-LOX pathway, 0.642 μM Ca ionophore A23187 and 4.43 μM arachidonic acid, the substrate of the 5-LOX pathway, along with 5 μl of each test solution or 5 μl of EtOH p.a. in control wells. After incubation for 10 min at 37° C. in darkness, the reaction is stopped by addition of 20 μl of 10% formic acid. The microtitre plate is centrifuged for 15 min at 1400 rpm to separate free LTB4 from cellular particles before the supernatant is diluted 40 fold in EIA buffer and applied to a competitive LTB4 EIA kit (Assay Designs Inc.).
LTB4 EIA: The plate is incubated for 2 hours at room temperature on an orbital shaker. […]

In a further assay the test system is IL-6 and TNF-α. As to the kind of experiment: Sow feeding trial, Postpartum Dysgalactia Syndrome, inflammation markers. In kind it is in vivo. As to conditions: sows, relative to untreated animals at allocation day. The procedure: Principle: Evaluation of the antiinflammatory activity of Larch sawdust in order to reduce the prevalence of Postpartum Dysgalactia Syndrome in sows under field conditions. IL-6 and TNF-α were analyzed as markers of inflammatory stress.
Materials and Methods: Sows with no clinical signs of disease were used from a farm of approximately 900 sows under production. Trial animals were sows of the same genotype (Dalland hybrids), chosen in terms of achieving homogenity regarding parity, bodyweight, previous production parameters (litter size, litter average bodyweight etc.) and previous health status. The farm was selected due to previous history of Post Partum Dysgalactia Syndrome occurrence. The sows were randomly allocated to a control group (n=5), a positive control group (n=5) and a larch sawdust (n=5) group. The whole trial period was 35 days beginning at 7 days prior to farrow until the day of weaning.
1% by weight of larch sawdust was added as an anti-inflammatory ingredient to sow feed (dry period and lactation feed). […] The raw materials were well accepted at an inclusion level of 1% by weight in the diet as it was shown by previous trials performed.
Thus, during the whole trial period the animals were fed as follows:
1. Control group (99% Basic diet and 1% Corn starch) 2. Larch group (99% Basic diet and 1% Larch) 3. Positive control group (99% Basic diet and 1% Corn starch)
Moreover, the animals of the positive control group were injected a single 2 ml dosage of an antiinflammatory drug (meloxicam) at the day of parturition, while the animals of all the other groups were injected with a single 2 ml dose of normal saline at the same day.
Blood samples were collected from all trial animals at allocation day (7 days before farrowing day) and at 24 and 72 hours post farrowing from all sows for inflammation markers evaluation (serum TNF-α, plasma IL-6). Additionally the milk production index for all sows was calculated, while production and health parameters of sows and their litters were recorded.
The cytokines results were expressed as n-fold increase of cytokine expression in relation to untreated animals at allocation day.

The IC50 is the midpoint of a concentration-inhibition curve. With `CC(C)C1=CC2=CC[C@@H]3[C@](C)(CCC[C@@]3(C)C(=O)O)[C@H]2CC1` [abietic acid], the IC50 was 29.5 ± 1.29 µM at 5-lipoxygenase (5-LOX) (Ulusu et al. 2002, isolated from cones of Abies nordmanniana ssp. equitraojani) and about 30 µM at 5-lipoxygenase (5-LOX) (known from the art).
Consider `CC(c1cc2ccccc2s1)N(O)C(N)=O` (centres unmarked) [Zileuton, reference compound], for which the concentration for half-maximal inhibition (IC50) in assay [1] was 5 µM; in assay [1] (Homo sapiens), 10 µM and 1.2 µg/mL.
In the case of `Cc1cnc(NC(=O)C2=C(O)c3ccccc3S(=O)(=O)N2C)s1` [Positive controls, meloxicam], in the assay with IL-6 and TNF-α (24 hours PP), the “Relative expression of IL6” value was 1.86 ± 0.92 n fold and the “Relative expression of TNFα” value is recorded as 0.87 ± 0.29 n fold. In addition, in the assay with IL-6 and TNF-α (72 hours PP), the “Relative expression of IL6” value stood at 1.08 ± 0.78 n fold and the “Relative expression of TNFα” value is given as 0.98 ± 0.77 n fold.
